Source: US8932558B2, “Multi-subunit biological complexes for treatment of plaque-associated diseases” (Plaxgen Inc, priority 2007, dated 2015)
Where a name gives a salt, the structure may show the parent alone. One block for each molecule: values may come before it.

What was measured:
[1] = target: iron-loaded abeta42 templates (Homo sapiens, UniProt P05067); assay: Binding of proteins to iron-loaded abeta42 templates; conditions: SDS-PAGE
Source text: FIG. 46 illustrates an example involving the identification of proteins that bind to iron-loaded abeta42 templates. The iron-loaded abeta42 templates are combined with known and unknown cell extracts (CE) and subjected to CPA, as described herein. To determine which proteins successfully bind the templates, the final template complexes are suspended in denaturing sample buffer, boiled, and loaded into SDS-PAGE gel. The gels are then stained with coomassie blue or silver stain in order to visualize the binding proteins. […] In the negative control, no significant binding is observed when the proteins are incubated in the absence of the templates.
In experiments such as these, known and unknown cell extract proteins that are used for the complex formation with the aggregates are diluted in PBS to a 1 mg/ml concentration and stored at −70° C. as 50 μl aliquots. These samples are thawed on ice and centrifuged (13000 rpm, 15 min, 4° C.) to remove any precipitation. The supernatant containing soluble proteins is used to form complexes with the aggregates. Various proteins are screened against the iron loaded abeta42 aggregates for examining their binding. Binding experiments are performed in PBS (50 μl, pH 7.3) containing 6.0 μg of iron loaded abeta 42 aggregates and 1.0 μg of each protein. The mixture is incubated at 37° C. for 1 hr. After that, the samples are centrifuged (9000 rpm, 9 min, 15° C.) and the complexes are washed five times with 100 μl PBST (PBS containing 0.05% of Tween 20). After each wash, the supernatant is discarded and the complexes are transferred to a new tube to avoid any carry-over of the proteins. The final complexes are suspended in 20 μl of PBS to which 5.0 μl of denaturing sample solublising buffer (Bio Rad, CA, USA) is added. After boiling the samples for 10 min they are loaded into 4-20% SDS-PAGE (Cambrex Bio Sci, ME, USA). The proteins in the gels are detected using coomassie blue or silver stain (Owl silver stain, Pierce, Ill., USA). All the binding and the CPA experiments are carried out in low protein bind 1.7 ml centrifuge tubes (Effentorf, Calif.).

[2] = system: thrombus, generated from the CP-Chl aggregates; assay: Effect of PGN27 on dissolution of thrombus; conditions: 2 mM, 1 hr
[3] = system: plaque accumulation in the heart tissues; assay: Drug treatment of asymptomatic induced atherosclerotic mice, histochemical analysis of heart tissues; conditions: 5-10 mg/kg per day orally, 8 weeks
CP aggregates [4] = assay: Binding of PGN27 to CP aggregates and cyclic plaque assembly (CPA)
[5] = system: plaque induced chronic inflammation; assay: Drug treatment of mice with plaque induced chronic inflammation; conditions: 5-10 mg/kg per day orally, 8 weeks
[6] = system: CO, lipid and cholesterol aggregates formations; assay: Effect of PGN27 on CO, lipid and cholesterol aggregates formation
CP aggregates formation = assay: Screen of known drugs for prevention of CP aggregates formation; conditions: for CP aggregates formation, dose dependence: sodium phosphate dibasic and calcium chloride 4 mM each
CP aggregates [7] = assay: Binding of proteins with calcium containing aggregates; conditions: 2 μg protein, 37° C., 1 hr
Procedure: (§1) The Proteins used for binding with the aggregates are diluted first in the PBS to make 1 mg/ml concentration and then stored at −20° C. as 50 μl aliquots. These samples are then thawed on ice and centrifuged (10,000 rpm, 10 min, 4° C.) to remove any precipitation and the supernatant containing only the soluble proteins are used for binding studies. To start with, for identification of proteins binding with calcium containing aggregates, a number of proteins are screened individually with the aggregates. Binding experiment is performed in 100 μl reaction (50 μl PBS buffer and 50 μl of individual aggregates) containing 2 μg of protein and the mixtures are incubated at 37° C. for 1 hr. For control experiments, protein (2 μg) is mixed in 100 μl PBS without aggregates. After the binding, the mixture is centrifuged (2500 rpm, 2 min, 20° C.) and the pellet is washed four times with 200 μl PBST (Tween 20, 0.05%). After each wash the supernatant is discarded and the complexes are transferred to a new microfuge tube to avoid any carry-over of the proteins. The calcium containing aggregates-protein complexes are suspended in 20 μl of PBS to which 5 μl of EDTA (25 mM final concentration) is added for solubilization of the complexes. Finally, the solublized samples are used for protein quantitation using protein estimation kit (Pierce, Ill.) and the data are used in the Microsoft Excel program to generate Graph 1 (FIG. 4). All the binding experiments and subsequent CPA experiments are carried out in low protein bind 1.7 ml centrifuge tubes (Effentorf, Calif.). For all the following binding experiments the same buffer, centrifugation and washing conditions are used.

[8] = target: T1, PLG attached to complexes of iron loaded abeta42 aggregates (Homo sapiens, UniProt P00747); assay: Activation of complex-bound PLG by u-PA or t-PA; type: biochemical
T1 construct: Lys-Plasminogen (PLG); purchased Enzyme Research Laboratories (IN, USA)
T1 sequence (P00747 97-810, one chain of several): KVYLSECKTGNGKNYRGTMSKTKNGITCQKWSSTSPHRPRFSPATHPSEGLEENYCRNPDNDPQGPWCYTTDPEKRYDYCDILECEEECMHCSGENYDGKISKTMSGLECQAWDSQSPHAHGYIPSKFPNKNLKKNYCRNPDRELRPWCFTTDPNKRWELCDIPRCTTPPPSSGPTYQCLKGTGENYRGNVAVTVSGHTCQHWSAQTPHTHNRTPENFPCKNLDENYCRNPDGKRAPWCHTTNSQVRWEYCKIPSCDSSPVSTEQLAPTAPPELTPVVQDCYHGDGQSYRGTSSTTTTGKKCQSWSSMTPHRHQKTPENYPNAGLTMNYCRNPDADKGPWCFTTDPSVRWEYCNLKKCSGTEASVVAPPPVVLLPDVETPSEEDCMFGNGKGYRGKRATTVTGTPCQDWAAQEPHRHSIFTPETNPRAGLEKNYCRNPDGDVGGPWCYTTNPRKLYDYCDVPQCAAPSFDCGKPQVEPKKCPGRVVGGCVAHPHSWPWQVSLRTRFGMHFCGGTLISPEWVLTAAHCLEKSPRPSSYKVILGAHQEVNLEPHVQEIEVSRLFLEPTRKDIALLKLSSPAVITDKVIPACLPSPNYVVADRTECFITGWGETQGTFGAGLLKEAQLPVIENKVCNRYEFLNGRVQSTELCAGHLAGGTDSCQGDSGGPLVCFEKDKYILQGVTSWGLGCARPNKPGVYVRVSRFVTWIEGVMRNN
Procedure: This example illustrates a method of evaluating the conformation and functionality of PLG attached to template complexes. Three groups of experiments are carried out to add the PLG at different layers of plaque complex formation. Group I includes three independent reactions containing both the PLG and BSA (0.5 μg each) that are added in the first cycle of the complex formation with the templates (5.0 μg). Group II includes three reactions to which both the PLG and BSA (0.5 μg each) are added in the first cycle of complex formation followed by another cycle of binding of the resulting complexes with the CE proteins (6.0 μg). Similarly, Group III includes three reactions each containing 5.0 μg of CE proteins and 5.0 μg of the abeta42 templates for complex formation in the first cycle of binding. The resulting complexes are subjected to another cycle of binding with both the PLG and BSA (0.5 μg each). […] After treating with the PLG activators, all the complexes are washed and finally suspended in 20 μl of PBS. After boiling the complexes for 10 min in sample solublizing buffer they are loaded into 4-20% gradient SDS-PAGE. Further, the gel is processed for silver staining and the results are documented for analysis. […]

[9] = system: thrombus generated from the in vitro assembled plaques complexes; assay: Thrombolytic assay with PLG cascade proteins; type: biochemical; conditions: thrombus from cholesterol, lipids, CP and CO complexes
Procedure: To examine this, both PLG and PLG activators are used to target these clots. Thrombolytic assays are carried out in 100 μl reaction containing thrombus, generated from 100 μl of aggregates or plaque complexes, 1 μg of PLG and 20 ng of u-PA or t-PA in PBS buffer. The reactions are incubated at 37° C. for 1 hr and after every 15 min the tubes are gently tapped to mix the contents. After 1 hr incubation, 1 ml of PBS is added to all the tubes and the samples are visually examined for dissolution of the thrombus.
The thrombus generated from the cholesterol, lipids, CP, and CO complexes are incubated separately with PLG, u-PA and t-PA to examine whether these proteins individually could dissolve the clots.
This could be due to the inhibition of u-PA by the PAI-1 thereby preventing the activation of the PLG. In the next experiment, the aggregates of CP-Cholesterol, CP-Lipids, CP-Cholesterol-Lipids, Cholesterol-Lipids, CO-Cholesterol and CO-Lipids are individually used in CPA for five cycles to assemble complexes followed by their thrombus generation.
The example depicted in FIG. 18 illustrates the dissolution of thrombi by PLG and u-PA. […] Both the clots and the dissolved complexes are further examined under microscope to confirm the visual examination (FIGS. 18a, b, c and d). The thrombus formed in the urine is also dissolved by the action of PLG and u-PA.

[10] = system: iron loaded abeta42 aggregates mixed with CE proteins; assay: Proteolysis of amyloid plaque complexes assembled on iron loaded abeta42 aggregates; type: biochemical; conditions: 20 ng protease, 37° C., 1 hr
Procedure: This example illustrates the use of the invention to evaluate the proteolytic degradation of the amyloid complexes. For example, iron loaded abeta42 aggregates are mixed with CE proteins, and the resulting template complexes are treated with five different serine proteases. More specifically, nine independent reactions are carried out with each containing 5.0 μg of the iron-loaded aggregates of abeta42 and 6.0 μg of the CE proteins. After incubation and washing, the complexes are suspended in 50 μl of PBS. The nine complexes are sub-divided into two groups, with six individual complexes comprising Group I and three complexes comprising Group II. In order to interrogate the role of the plasminogen (PLG) activation system, which is implicated in the catabolism of amyloid peptides as well as the pathobiology of amyloid diseases (Melchor J P et al, 2003; Van Nostrand W E et al, 1999; Kranenburg O, 2005), the Group II complexes are subjected to another cycle of binding with both PLG (0.5 μg) and BSA (0.5 μg) proteins. After binding and washing, the PLG and BSA bound plaques complexes are suspended in 50 μl of PBS.
For proteolysis analysis, five of the six Group I template complexes are incubated with 20 ng of each protease (plasnin, chymotrypsin, trypsin, proteinase K and urokinase). The remaining complex is used as a control without protease treatment. Among three complexes of the Group II containing PLG attached to them, one is treated with u-PA (20 ng), a second is treated with t-PA (20 ng) and the third complex is used as a control without protease treatment. All these plaque complexes are incubated at 37° C. for 1 hr and after every 15 min, the tubes are gently tapped in order to encourage mixing. After washing, both the proteases-treated and control plaque complexes are suspended in 20 μl PBS. The complexes are boiled for 10 min with sample solubilizing buffer and loaded in to 4-20% gradient SDS-PAGE. Further, the gels are processed for silver staining and the results are documented for further analysis.

CO aggregates = assay: Binding of proteins with calcium containing aggregates; conditions: 2 μg protein, 37° C., 1 hr
Procedure: as §1

[11] = system: CP, CC, CO, and CaPPD aggregates; assay: Binding of proteins with calcium containing aggregates (any of the four); conditions: 2 μg protein, 37° C., 1 hr
Procedure: as §1, with “The calcium containing aggregates-protein complexes are suspended in 20 μl of PBS to which 5 μl of EDTA (25 mM final concentration) is added for solubilization of the complexes.” left out, “All the binding experiments and subsequent CPA experiments are carried out in low protein bind 1.7 ml centrifuge tubes (Effentorf, Calif.). For all the following binding experiments the same buffer, centrifugation and washing conditions are used.” left out

iron-loaded abeta42 templates, sequence (P05067 672-713 limits assumed): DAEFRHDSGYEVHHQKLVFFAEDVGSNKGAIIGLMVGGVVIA

Molecule: CB: complement factor B
Binding with iron-loaded abeta42 templates [1]: bind with the templates

Molecule: CN(C)[C@@H]1C(O)=C(C(N)=O)C(=O)[C@@]2(O)C(O)=C3C(=O)c4c(O)cccc4[C@@](C)(O)[C@H]3C[C@@H]12 [PGN27, tetracycline hydrochloride]
Dissolution of the thrombus [2]: no dissolution of the thrombus
Plaque accumulation in heart tissues, histochemical analysis [3]: reduced plaque accumulation
Binding with the CP aggregates (colorless to yellow) (CP aggregates [4]; 2 mM, 37° C., 30 min): specific and stable binding
Effect on binding of proteins with the CP aggregates in CPA (CP aggregates [4]; CP-PGN27 complexes, four cycles of CPA, gel analysis): did not compete or affect binding of the proteins
Symptoms of plaque inflammation compared to the control animal [5]: reduced symptoms of plaque inflammation
Inhibition of CO, lipid and cholesterol aggregates formations [6]: did not inhibit
CP aggregates formation in the presence of antibiotic (CP aggregates formation; 5 mM drug, 5 mM sodium phosphate dibasic, 5 mM calcium chloride, 30 min 37° C.): prevented the CP aggregates formation
CP aggregates formation, dose dependence (CP aggregates formation; 0.5 and 0.25 mM drug): CP aggregates formation occurred
CP aggregates formation, dose dependence (CP aggregates formation; 4, 2 and 1 mM drug): did not show the CP aggregates formation

Molecule: PLG: plasminogen
Binding with the CP aggregates (CP aggregates [7]): detectable binding
Binding with iron-loaded abeta42 templates [1]: bind with the templates
Activation of PLG bound in first cycle compared to second cycle, increasing u-PA ([8]; 25, 50, 100 ng u-PA): exhibits resistance even when incubated with increased concentrations of the u-PA
Activation of PLG bound in first cycle compared to second cycle ([8]; u-PA (20 ng) or t-PA): detectable level of resistance to activation
Dissolution of thrombus, protein incubated separately [9]: did not show any dissolution

Molecule: trypsin
Degradation of proteins bound to the aggregates [10]: degraded

Binding with the CP aggregates (CP aggregates [7]): detectable binding
Molecule: C3: complement factor 3

Molecule: FIX: coagulation factor IX
Binding with the CO aggregates (CO aggregates): detected for binding
Binding with the CP aggregates (CP aggregates [7]): detectable binding
Binding with iron-loaded abeta42 templates [1]: bind with the templates

Molecule: ProS: protein S
Binding with the CP aggregates (CP aggregates [7]): detectable binding
Binding with iron-loaded abeta42 templates [1]: bind with the templates

Molecule: CD: complement factor D
Binding with iron-loaded abeta42 templates [1]: bind with the templates

Molecule: rhHGF: recombinant human hepatocyte growth factor
Binding with iron-loaded abeta42 templates [1]: bind with the templates

Molecule: chymotrypsin
Degradation of proteins bound to the aggregates [10]: degraded

Molecule: HIN: human insulin
Binding with iron-loaded abeta42 templates [1]: no detectable binding
Binding with any of the CP, CC, CO, CaPPD aggregates [11]: no detectable binding
